# Laboratory results from paper PMC10480232 (Scientific Reports, 2023).
# Residues, ends and D or L forms follow the SMILES beside them. No end group written: not given here.
# Test system: SARS-CoV-2
# Conditions: 1 h
row,Compound,SARS-CoV-2 inhibition at 50 µM
1,CC[C@H](C)[C@H](NC(=O)[C@H](CCCNC(=N)N)NC(=O)[C@H](CCC(=O)O)NC(=O)CN)C(=O)N[C@@H](CCCCN)C(=O)N[C@@H](CC(N)=O)C(=O)N[C@@H](C)C(=O)N[C@@H](CCCCN)C(=O)N[C@@H](CCCCN)C(=O)N[C@@H](CCCCN)C(=O)N[C@H](C(=O)N[C@@H](Cc1c[nH]c2ccccc12)C(=O)N[C@@H](CCC(=O)O)C(=O)N[C@@H](CCCCN)C(=O)N[C@H](C(=O)N[C@@H](CCCCN)C(=O)N[C@@H](CO)C(=O)N[C@@H](Cc1ccccc1)C(=O)NCC(=O)N[C@@H](CCCNC(=N)N)C(=O)N[C@@H](CCCNC(=N)N)C(=O)N[C@H](C(=O)N[C@@H](CCCCN)C(=O)N[C@@H](CC(=O)O)C(=O)N[C@@H](Cc1ccccc1)C(=O)N[C@@H](Cc1ccccc1)C(=O)N[C@@H](CCCNC(=N)N)C(=O)N[C@@H](CCCCN)C(=O)N1CCC[C@H]1C(=O)N[C@@H](CO)C(=O)N1CCC[C@H]1C(=O)N[C@@H](CCC(=O)O)C(=O)N[C@H](C(=O)N[C@@H](CCC(=O)O)C(=O)N1CCC[C@H]1C(=O)O)C(C)C)[C@@H](C)CC)[C@@H](C)CC)C(C)C [Bat Cathelicidin 4c] (H-GERIKNAKKKVWEKIKSFGRRIKDFFRKPSPEVEP-OH; N-terminus and C-terminus assumed),> 50%
2,RTKRFRKLGNLLQKGGQKIGQKIERIGQKIKDFFSNLVPRQEGA [Pangolin 1],> 50%
3,IKNVELNIENLGERIKNAKKKVWEKIKSFGRRIKDFFRKPSPEVEP [Bat Cathelicidin 4],> 50%
4,CC[C@H](C)[C@H](NC(=O)CNC(=O)[C@@H](NC(=O)[C@H](CCCCN)NC(=O)[C@@H](NC(=O)[C@H](CCCCN)NC(=O)[C@H](CCCCN)NC(=O)[C@H](Cc1ccccc1)NC(=O)[C@H](Cc1ccccc1)NC(=O)[C@H](CC(N)=O)NC(=O)[C@H](CCCCN)NC(=O)[C@H](Cc1ccccc1)NC(=O)[C@H](CCCNC(=N)N)NC(=O)[C@@H](N)CCCCN)[C@@H](C)CC)[C@@H](C)O)C(=O)N[C@@H](CCCCN)C(=O)N[C@@H](CCCCN)C(=O)N[C@H](C(=O)N[C@H](C(=O)N[C@@H](CCCCN)C(=O)N[C@@H](CCCCN)C(=O)N[C@H](C(=O)N[C@@H](CCCCN)C(=O)N[C@@H](CCC(=O)O)C(=O)O)[C@@H](C)O)[C@@H](C)CC)C(C)C [NS] (H-KRFKNFFKKIKTGIKKVIKKTKE-OH; N-terminus and C-terminus assumed),> 50%
5,CC[C@H](C)[C@H](NC(=O)[C@H](CO)NC(=O)[C@H](CCCCN)NC(=O)[C@H](CCCNC(=N)N)NC(=O)[C@H](CC(C)C)NC(=O)[C@H](CCCCN)NC(=O)[C@H](CCCCN)NC(=O)[C@@H](NC(=O)[C@H](CCCNC(=N)N)NC(=O)[C@H](CCCCN)NC(=O)[C@@H](N)CCCNC(=N)N)[C@@H](C)CC)C(=O)N[C@@H](CCCCN)C(=O)N[C@@H](CCCCN)C(=O)N[C@@H](CCCNC(=N)N)C(=O)N[C@@H](CC(C)C)C(=O)N[C@@H](CCCCN)C(=O)N[C@@H](CCCCN)C(=O)N[C@@H](CC(C)C)C(=O)N1CCC[C@H]1C(=O)N[C@@H](Cc1ccccc1)C(=O)N[C@@H](CCC(=O)O)C(=O)N[C@H](C(=O)N1CCC[C@H]1C(=O)N[C@@H](CC(C)C)C(=O)N[C@H](C(=O)N[C@@H](Cc1ccccc1)C(=O)N[C@@H](CO)C(=O)N[C@H](C(=O)N1CCC[C@H]1C(=O)N[C@@H](Cc1ccccc1)C(=O)O)[C@@H](C)CC)C(C)C)C(C)C [PC1a] (H-RKRIKKLRKSIKKRLKKLPFEVPLVFSIPF-OH; N-terminus and C-terminus assumed),> 50%
